Test results as given in patent US12042492B2 (priority 2020, dated 2024).
“Also recorded” adds a separate entry of the source.

Assays:
N2a cells = assay: Cell viability (MTT assay) in N2a cells; format: cell-based, mouse; details: ligand treated N2a cells relative to untreated cells; P=0.038
Procedure: (§1) The N2a cells grown for 6 days in a serum-free medium (1:1 mixture of DMEM and OptiMEM, plus penicillin and streptomycin (Invitrogen, Carlsbad, CA, USA) until the cells developed neuronal processes. As shown in (FIG. 10), these cells were used for 4 groups—one control group and 3 treatment groups. 1) untreated N2a cells (the control group), 2) N2a cells treated with ligand 1 (N2a+ligand 1), 3) N2a cells transfected mAPP with the (lipofectamine) (20 μM final concentration for 6 hrs (mAPP), 4) N2a cells transfected with mAPP cDNA for 6 hrs, treated with ligand 1 (mAPP+ligand 1 treatment group), N2a cells treated with ligand 1 for 24 hrs and then treated with the mAPP cDNA for 6 hrs (ligand 1+mAPP treatment group). As shown in (FIG. 10), the inventors performed 4 independent cell cultures and treatments for all experiments (n=4).
Cell viability and apoptotic cell death MTT assay. Ligand 1 treated N2a cells, cell based apoptosis assay was performed using Cellometer Vision CBA Image Cytometry System (Nexcelom Bioscience LLC, Lawrence, MA) with two fluorophore Annexin V-FITC and Propidium Iodide (PI) staining solution, according to manufacturer's instructions. Briefly, cells were harvested using trypsin, then spin down at 300 g for three minutes and pellets were washed with 1×PBS, cells were counted using hematocytometer. […]

BACE1 = target: T1, BACE1 (Mus musculus, UniProt P56818); assay: Sandwich ELISA of BACE1 activity in mAPP N2a cells; format: cell-based; details: mAPP cells treated with ligand 1 relative to untreated mAPP cells; P=0.001
T1 construct: endogenous in cells; host or cells: N2a mouse neuroblastoma cells (ATCC) transfected with mutant APP Swe/Ind cDNA
From the text: ELISA Ligand based inhibition of BACE1 activity, Aβ 40 and 42. BACE1 activity, Levels of Aβ40 and 42. To determine whether ligand 1 lowers BACE1 activity and reducing the Aβ40 and Aβ42 levels, the inventors measured BACE1 activity, Aβ40 and Aβ42 levels in mutant APP cells (N2a+mutant cDNA transfected) treated with ligand 1 using Sandwich ELISA.
as §1, with “As shown in (FIG. 10), the inventors performed 4 independent cell cultures and treatments for all experiments (n=4).” left out
ELISA Ligand based BACE1 inhibition of Aβ 40 and 42. […] For each sample, Aβ1-40 and Aβ1-42 were measured with commercial colorimetric ELISA kits (Biosource International, Camarillo, CA, USA) specific for human. […] Protein concentrations of the homogenates were determined following the […], and Aβ was expressed as pg Aβ/mg protein.

mAPP N2a cells = assay: Immunofluorescence analysis of BACE1, 6E10 and CTF; format: cell-based, mouse; details: ligand 1-treated mAPP N2a cells relative to untreated mAPP N2a cells, P=0.01
Procedure: Immunofluorescence analysis of BACE1, 6E10 and CTF. To determine the effect of ligand 1 on BACE1, 6E10 and C-terminal fragments, immunofluorescence analysis was performed on four different groups of cells: 1) untreated N2a cells versus; 2) N2a+ligand 1; 3); cells transfected with mAPP and 4) mAPP+ligand 1.
Immunofluorescence analysis of BACE1, 6E10 and CTF. To determine BACE1, 6E10, CTF inhibition, mitochondrial network, immunofluorescence analysis was performed using mutant AβPP cells and untransfected N2a and TOM20 antibody as described in (35). The fixed cells were washed with warm PBS, fixed in freshly prepared 4% paraformaldehyde in PBS for 10 minutes, then washed with PBS and permeabilized with 0.1% Triton-X100 in PBS. They were blocked with a 1% blocking solution (Invitrogen) for 1 hour at room temperature. All sections were incubated overnight with TOM20 antibody (1:250 dilution). After incubation, the cells were washed 3 times with PBS, for 10 minutes each. The cells were incubated with a secondary antibody conjugated with Fluor 488 (Invitrogen) for 1 hour at room temperature. The cells were washed 3 times with PBS and mounted on slides. Photographs were taken with a multiphoton laser scanning microscope system (ZeissMeta LSM510). To quantify the immunoreactivity of TOM20 antibody for each treatment, 10-15 photographs were taken at ×40 magnifications, and statistical significance was assessed, using one-way ANOVA for TOM20 protein.

T1 sequence (P56818 46-501): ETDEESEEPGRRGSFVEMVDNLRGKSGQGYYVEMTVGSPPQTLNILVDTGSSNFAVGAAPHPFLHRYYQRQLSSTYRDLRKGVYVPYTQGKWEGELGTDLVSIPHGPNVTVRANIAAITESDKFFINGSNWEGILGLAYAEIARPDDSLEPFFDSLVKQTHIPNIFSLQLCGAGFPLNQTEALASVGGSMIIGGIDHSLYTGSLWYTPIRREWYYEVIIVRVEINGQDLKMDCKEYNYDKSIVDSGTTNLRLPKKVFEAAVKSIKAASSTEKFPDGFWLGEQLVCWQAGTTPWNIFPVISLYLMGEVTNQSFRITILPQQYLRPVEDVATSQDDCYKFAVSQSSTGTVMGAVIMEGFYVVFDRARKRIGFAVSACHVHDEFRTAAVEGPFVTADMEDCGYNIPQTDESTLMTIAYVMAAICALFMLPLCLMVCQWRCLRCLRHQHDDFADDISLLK

Substance: [(6As,8S,10aS,12aS)-10a, 12a-dimethyl-2-oxo-3,4,4a,4b,5,6,6a,7,8,9,10,10b,11,12-tetradecahydro-1H-naphtho[2,1-f]quinolin-8-yl] 4-[4-[bis(2-chloroethyl)amino]phenyl]butanoate [Ligand 1]
- Cell viability (N2a cells): significantly increased
- BACE1 activity (BACE1): significantly lower; also recorded: significantly reduced
- 6E10 immunoreactivity (mutant APP and Aβ) (mAPP N2a cells): significantly lower; also recorded: significantly reduced
- BACE1 immunoreactivity (mAPP N2a cells): significantly lower; also recorded: significantly reduced
- C-terminal fragment (CTF) immunoreactivity (mAPP N2a cells): significantly lower; also recorded: significantly reduced
